Consider seven compounds from DBAASP.

What all share (assay): ≥ marks a high value that may be exact or a test limit, other limits are often not marked, values filed in µg/mL are converted to µM
The test system of assay [1] is Escherichia coli ATCC 35218.
For assay [2], the system named is Pseudomonas aeruginosa ATCC 27853.
For assay [3], the system named is Staphylococcus aureus ATCC 25923.
The test system of assay [4] is Escherichia coli ATCC 11229.
Assay [5] concerns Staphylococcus aureus ATCC 29213.
Assay [6] relates to Klebsiella pneumoniae ATCC 13866.
In assay [7] the test system is Staphylococcus aureus ATCC 33591.
Assay [8] deals with Franconibacter helveticus DSM 18390.
Assay [9] concerns Staphylococcus xylosus DSM 20267.
For assay [10], the system named is Bacillus subtilis DSM 347.
The test system of assay [11] is Escherichia coli DSM 1116.
Assay [12] concerns Candida boidinii.
The test system of assay [13] is Psychrobacter sp. TAD 1.
For assay [14], the system named is Escherichia coli.
The subject of assay [15] is Bacillus pumilus.
The subject of assay [16] is Staphylococcus aureus HNCMO 112011.
The subject of assay [17] is Escherichia coli ATCC 8739.
The subject of assay [18] is Acinetobacter baumannii ATCC 17978.
Assay [19] deals with Escherichia coli CMCC 44102.
Assay [20] deals with Staphylococcus epidermidis ATCC 12228.
Assay [21] concerns Staphylococcus aureus CMCC 26003.
In assay [22] the test system is Salmonella enterica subsp. enterica serovar Typhi CMCC 50071.
In assay [23] the test system is Salmonella enterica subsp. enterica serovar Pullorum C79-13.
In assay [24] the test system is Escherichia coli UB1005.
The test system of assay [25] is Salmonella enterica subsp. enterica serovar Typhimurium C77-31.
Assay [26] relates to Salmonella enterica subsp. enterica serovar Typhimurium ATCC 14028.
Assay [27] concerns Bacillus subtilis NRRL B-237.
Assay [28] deals with Paenibacillus alvei LMG 6922.
Assay [29] has as its system Bacillus megaterium QMB 1551.
The subject of assay [30] is Bacillus thuringiensis serovar tenebrionis DSM 2803.
Assay [31] deals with Salmonella typhimurium ATCC 23565.
For assay [32], the system named is Clavibacter michiganensis subsp. insidiosus NCPPB 1109.
For assay [33], the system named is Sinorhizobium meliloti ZB314.
Assay [34] has as its system Salmonella enterica subsp. enterica serovar Newport.
Assay [35] relates to Serratia marcescens ATCC 17991.
Assay [36] has as its system Agrobacterium tumefaciens DSM 3129.
Assay [37] deals with Shigella flexneri CP87.
The test system of assay [38] is Escherichia coli NCTC 9001.
For assay [39], the system named is Pseudomonas syringae pv. tomato NCPPB 1106.
In assay [40] the test system is Brenneria salicis NCPPB 2530.

Values after ≈ are worked out from the molar mass of the structure shown.

A word on the MIC: it is the lowest concentration that inhibits growth of the organism. Higher therefore signals a need for much substance. With `CSCC[C@H](NC(=O)[C@H](CC(C)C)NC(=O)CN)C(=O)N[C@@H](CCCCN)C(=O)N[C@@H](CC(C)C)C(=O)N[C@@H](CC(C)C)C(=O)N[C@@H](CCCN=C(N)N)C(=O)N[C@@H](CCC(=O)O)C(=O)N[C@@H](CC(C)C)C(=O)N[C@@H](CC(C)C)C(=O)N[C@@H](Cc1cnc[nH]1)C(=O)N[C@@H](CCSC)C(=O)N[C@@H](Cc1ccccc1)C(=O)N[C@@H](CO)C(=O)N[C@@H](CCCN=C(N)N)C(=O)N[C@H](C(=O)NCC(=O)O)C(C)C` [GLMKLLRELLHMFSRVG], the MIC in [1] is ≥ 64 µM; in assay [2] it was 8 µM (≈ 16 µg/mL); in [3] it was 32 µM (≈ 64 µg/mL); in assay [4], ≥ 64 µM; in [5], 32 µM (≈ 64 µg/mL); in assay [6] it was 32 µM (≈ 64 µg/mL). In addition, the MIC in [7] was found to be 16 µM (≈ 32 µg/mL).

Take `CC(C)C[C@H](NC(=O)[C@H](CCCCN)NC(=O)[C@H](CC(C)C)NC(=O)[C@H](CCCCN)NC(=O)[C@H](CC(C)C)NC(=O)[C@H](CCCCN)NC(=O)[C@H](CC(C)C)NC(=O)[C@H](CCCCN)NC(=O)[C@H](CC(C)C)NC(=O)[C@H](CCCCN)NC(=O)[C@H](CC(C)C)NC(=O)[C@H](CCCCN)NC(=O)[C@H](CC(C)C)NC(=O)[C@H](CCCCN)NC(=O)[C@H](CC(C)C)NC(=O)[C@H](CCCCN)NC(=O)[C@H](CC(C)C)NC(=O)[C@@H](N)CCCCN)C(N)=O` [KLKLKLKLKLKLKLKLKL]: the MIC in assay [8] worked out at 7.31 µM (≈ 16 µg/mL); in assay [9], 3.65 µM (≈ 8 µg/mL); in assay [10], 14.6 µM (≈ 32 µg/mL); in assay [11] it was 14.6 µM (≈ 32 µg/mL).

With `CC[C@H](C)[C@H](NC(=O)CNC(=O)[C@H](CCCN=C(N)N)NC(=O)[C@H](CC(C)C)NC(=O)[C@H](CC(C)C)NC(=O)[C@H](Cc1cnc[nH]1)NC(=O)CNC(=O)[C@H](Cc1ccccc1)NC(=O)[C@@H](N)Cc1ccccc1)C(=O)N[C@H](C(=O)N[C@@H](CO)C(=O)N[C@H](C(=O)NCC(=O)N[C@@H](CCCCN)C(=O)N[C@@H](Cc1cnc[nH]1)C(=O)N[C@H](C(=O)N[C@@H](Cc1cnc[nH]1)C(=O)NCC(=O)N[C@@H](CC(C)C)C(=O)N[C@H](C(=O)N[C@H](C(=O)NCC(=O)O)[C@@H](C)O)[C@@H](C)CC)[C@@H](C)CC)C(C)C)C(C)C` [FFGHLLRGIVSVGKHIHGLITG], the MIC in assay [12] is ≥ 50 µM; in assay [13], 2.5 µM (≈ 5.9 µg/mL); in [14], 25 µM (≈ 59 µg/mL); in assay [15] it was 10 µM (≈ 23.6 µg/mL).

In the case of `CC[C@H](C)[C@H](NC(=O)[C@H](CCCCN)NC(=O)[C@H](CCCCN)NC(=O)[C@H](C)NC(=O)[C@H](CC(C)C)NC(=O)[C@H](C)NC(=O)[C@H](C)NC(=O)[C@H](CC(C)C)NC(=O)[C@H](C)NC(=O)[C@@H](N)CCCCN)C(=O)N[C@@H](CC(C)C)C(=O)O` [KALAALAKKIL], the MIC in assay [16], in assay [17] and in [18] was 25 µM (≈ 28.5 µg/mL) each time.

In the case of `CC[C@H](C)[C@H](NC(=O)[C@H](CCCN=C(N)N)NC(=O)[C@H](CCCN=C(N)N)NC(=O)[C@H](CC(C)C)NC(=O)[C@H](Cc1ccccc1)NC(=O)[C@@H]1CCCN1C(=O)[C@H](CCCN=C(N)N)NC(=O)[C@H](CCSC)NC(=O)[C@@H](NC(=O)[C@H](CCCCN)NC(=O)[C@H](CCCCN)NC(=O)[C@H](CS)NC(=O)[C@@H](NC(=O)CNC(=O)[C@@H]1CCCN1C(=O)[C@H](CC(C)C)NC(=O)[C@@H](NC(=O)[C@@H](N)CCCCN)[C@@H](C)CC)C(C)C)[C@@H](C)CC)C(=O)N[C@@H](CO)C(=O)N[C@@H](CCCCN)C(=O)N[C@@H](CC(=O)O)C(=O)N[C@H](C(=O)N[C@@H](CC(C)C)C(=O)N[C@H](C(=O)NCC(=O)N[C@@H](CCCCN)C(=O)N[C@@H](CCCCN)C(N)=O)[C@@H](C)O)[C@@H](C)CC` [KILPGVCKKIMRPFLRRISKDILTGKK], the MIC in assay [2] came to 32 µM (≈ 100 µg/mL); in assay [19] it was 8 µM (≈ 25.1 µg/mL); in [20], 8 µM (≈ 25.1 µg/mL); in [21] it was 8 µM (≈ 25.1 µg/mL).

For the compound `NCCCC[C@H](NC(=O)[C@H](CCCCN)NC(=O)[C@H](CCCN=C(N)N)NC(=O)[C@H](CCCN=C(N)N)NC(=O)[C@H](Cc1c[nH]c2ccccc12)NC(=O)[C@H](CCC(N)=O)NC(=O)[C@H](Cc1c[nH]c2ccccc12)NC(=O)[C@H](CCCN=C(N)N)NC(=O)[C@H](CCCN=C(N)N)NC(=O)[C@H](CCCCN)NC(=O)[C@@H](N)CCCCN)C(N)=O` [KKRRWQWRRKK], the MIC in assay [20] is > 128 µM; in assay [3], 128 µM (≈ 212 µg/mL); in [22], ≥ 128 µM; in assay [5], > 128 µM; in assay [23], ≥ 128 µM; in assay [24], ≥ 32 µM. Besides, the MIC in assay [25] was ≥ 128 µM; in assay [26], > 128 µM.

`CC[C@H](C)[C@H](NC(=O)[C@H](Cc1ccc(O)cc1)NC(=O)[C@@H](NC(=O)[C@@H]1CCCN1C(=O)[C@H](CCCN=C(N)N)NC(=O)[C@H](CC(N)=O)NC(=O)[C@H](CC(N)=O)NC(=O)CN)C(C)C)C(=O)N1CCC[C@H]1C(=O)N[C@@H](CCC(N)=O)C(=O)N1CCC[C@H]1C(=O)N[C@@H](CCCN=C(N)N)C(=O)N1CCC[C@H]1C(=O)N1CCC[C@H]1C(=O)N[C@@H](Cc1cnc[nH]1)C(=O)N1CCC[C@H]1C(=O)N[C@@H](CCCN=C(N)N)C(=O)O` [GNNRPVYIPQPRPPHPR]: the MIC is ≥ 100 µM in assay [27]; ≥ 100 µM in assay [28]; ≥ 75.2 µM in assay [29]; ≥ 100 µM in assay [30]; 0.0501 µM (≈ 0.1 µg/mL) in [31]; 25.1 µM (≈ 50 µg/mL) in assay [32]. The minimal inhibitory concentration (MIC) in [33] is 0.0501 µM (≈ 0.1 µg/mL); in assay [34], 0.1 µM (≈ 0.2 µg/mL); in [35], ≥ 100 µM; in assay [36], 0.1 µM (≈ 0.2 µg/mL); in [37], 0.0501 µM (≈ 0.1 µg/mL); in [38], 0.0501 µM (≈ 0.1 µg/mL). The MIC was found to be 0.1 µM (≈ 0.2 µg/mL) in [39] and 0.01 µM (≈ 0.02 µg/mL) in assay [40].
